# Structures can show the parent of a compound that is named as a salt.
# Test system: HCT 116 cells (human colon carcinoma, ATCC-No. CCl-247)
# Experiment: CellTiter-Glo Luminescent Cell Viability Assay in HCT 116 cells
# Type: cell-based
# Settings: HCT 116 cell viability, CellTiter-Glo (ATP luminescence), 5 days (120 h) incubation, 10 concentrations 30 μM to 0.0015 μM, triplicate
# From the text: CellTiter-Glo™ Assay in HCT 116 Cells
# The CellTiter-Glo™ Luminescent Cell Viability Assay (Promega) is a homogeneous method of determining the number of viable cells in culture based on quantitation of the ATP present, which signals the presence of metabolically active cells.
# HCT 116 cells (human colon carcinoma, ATCC-No. CCl-247) were cultivated in RPMI 1640 medium with GlutaMAX™ I (Invitrogen, Cat-No. 61870-010), 5% Fetal Calf Serum (FCS, Sigma Cat-No. F4135 (FBS)); 100 Units/ml penicillin/100 μg/ml streptomycin (=Pen/Strep from Invitrogen Cat. No. 15140). For the assay the cells were seeded in 384 well plates, 1000 cells per well, in the same medium. The next day the test compounds were added in various concentrations ranging from 30 μM to 0.0015 μM (10 concentrations, 1:3 diluted). After 5 days the CellTiter-Glo™ assay was done according to the instructions of the manufacturer (CellTiter-Glo™ Luminescent Cell Viability Assay, from Promega). In brief the cell-plate was equilibrated to room temperature for approximately 30 minutes and than the CellTiter-Glo™ reagent was added. The contents were carefully mixed for 15 minutes to induce cell lysis. After 45 minutes the luminescent signal was measured in Victor 2, (scanning multiwell spectrophotometer, Wallac).
# • Medium: RPMI 1640 with GlutaMAX™ I (Invitrogen, Cat-Nr. 61870), 5% FCS (Sigma Cat.-No. F4135), Pen/Strep (Invitrogen, Cat No. 15140). • HCT116 (ATCC-No. CCl-247): 1000 cells in 60 μl per well of 384 well plate (Greiner 781098, μClear-plate white) • After seeding incubate plates 24 h at 37° C., 5% CO2 2nd. Day: Induction (Treatment with Compounds, 10 Concentrations):
# In order to achieve a final concentration of 30 μM as highest concentration 3.5 μl of 10 mM compound stock solution were added directly to 163 μl media. Then step e) of the dilution procedure described below, was followed.
row,SMILES,IC50 [µM]
1,"O=C(NS(=O)(=O)c1ccc(N2CCN(c3ccccn3)CC2)nc1)c1ccc(Cl)cc1Cl [Example 1-1, 6-(4-Pyridin-2-yl-piperazin-1-yl)-pyridine-3-sulfonic acid 2,4-dichloro-benzoylamide; ammonium salt]",3.35
2,"O=C(NS(=O)(=O)c1ccc(N2CCC3(CC2)OCCCO3)nc1)c1ccc(Cl)cc1C(F)(F)F [Example 1-2, 6-(1,5-Dioxa-9-aza-spiro[5.5]undec-9-yl)-pyridine-3-sulfonic acid 4-chloro-2-trifluoromethyl-benzoylamide; ammonium salt]",4.28
3,"Cc1cccc(N2CCN(c3ccc(S(=O)(=O)NC(=O)c4ccc(F)cc4C(F)(F)F)cn3)CC2)c1 [Example 1-3, 6-(4-m-Tolyl-piperazin-1-yl)-pyridine-3-sulfonic acid 4-fluoro-2-trifluoromethyl-benzoylamide; sodium salt]",1 to 10
4,"O=C(NS(=O)(=O)c1ccc(N2CCN(c3ccccn3)CC2)nc1)c1ccc(F)cc1C(F)(F)F [Example 1-6, 6-(4-Pyridin-2-yl-piperazin-1-yl)-pyridine-3-sulfonic acid 4-fluoro-2-trifluoromethyl-benzoylamide; ammonium salt]",1 to 10
5,"O=C(NS(=O)(=O)c1ccc(N2CCN(c3ccc(F)cc3)CC2)nc1)c1ccc(F)cc1C(F)(F)F [Example 1-7, 6-[4-(4-Fluoro-phenyl)-piperazin-1-yl]-pyridine-3-sulfonic acid 4-fluoro-2-trifluoromethyl-benzoylamide; ammonium salt]",1 to 10
6,"COc1cc(Cl)ccc1C(=O)NS(=O)(=O)c1ccc(N2CCN(c3ccccc3OC)CC2)nc1 [Example 1-8, 6-[4-(2-Methoxy-phenyl)-piperazin-1-yl]-pyridine-3-sulfonic acid 4-chloro-2-methoxy-benzoylamide; ammonium salt]",1 to 10
7,"COc1ccc(N2CCN(c3ccc(S(=O)(=O)NC(=O)c4ccc(Cl)cc4C(F)(F)F)cn3)CC2)cc1 [Example 1-9, 6-[4-(4-Methoxy-phenyl)-piperazin-1-yl]-pyridine-3-sulfonic acid 4-chloro-2-trifluoromethyl-benzoylamide]",1 to 10
8,"O=C(NS(=O)(=O)c1ccc(N2CCN(c3ccccc3)CC2)nc1)c1ccc(F)cc1Cl [Example 1-10, 6-(4-Phenyl-piperazin-1-yl)-pyridine-3-sulfonic acid 2-chloro-4-fluoro-benzoylamide]",1 to 10
9,"COc1cc(Cl)ccc1C(=O)NS(=O)(=O)c1ccc(N2CCN(c3ccc(F)cc3)CC2)nc1 [Example 1-11, 6-[4-(4-Fluoro-phenyl)-piperazin-1-yl]-pyridine-3-sulfonic acid 4-chloro-2-methoxy-benzoylamide]",1.25
10,"COc1ccccc1N1CCN(c2ccc(S(=O)(=O)NC(=O)c3ccc(Cl)cc3C(F)(F)F)cn2)CC1 [Example 1-13, 6-[4-(2-Methoxy-phenyl)-piperazin-1-yl]-pyridine-3-sulfonic acid 4-chloro-2-trifluoromethyl-benzoylamide]",1 to 10
11,"COc1ccccc1N1CCN(c2ccc(S(=O)(=O)NC(=O)c3ccc(F)cc3Cl)cn2)CC1 [Example 1-14, 6-[4-(2-Methoxy-phenyl)-piperazin-1-yl]-pyridine-3-sulfonic acid 2-chloro-4-fluoro-benzoylamide; sodium salt]",1 to 10
12,"O=C(NS(=O)(=O)c1ccc(N2CCN(c3ccc(F)cc3)CC2)nc1)c1ccc(Cl)cc1Cl [Example 1-16, 6-[4-(4-Fluoro-phenyl)-piperazin-1-yl]-pyridine-3-sulfonic acid 2,4-dichloro-benzoylamide; sodium salt]",1 to 10
13,"O=C(NS(=O)(=O)c1ccc(N2CCN(c3ccc(F)cc3F)CC2)nc1)c1ccc(F)cc1C(F)(F)F [Example 1-20, 6-[4-(2,4-Difluoro-phenyl)-piperazin-1-yl]-pyridine-3-sulfonic acid 4-fluoro-2-trifluoromethyl-benzoylamide; sodium salt]",1 to 10

# Results, then the compound that gave them:
row,IC50 [µM],SMILES
1,1 to 10,"COc1cc(Cl)ccc1C(=O)NS(=O)(=O)c1ccc(N2CCN(c3ccccc3)CC2)nc1 [Example 1-4, 6-(4-Phenyl-piperazin-1-yl)-pyridine-3-sulfonic acid 4-chloro-2-methoxy-benzoylamide]"
2,1 to 10,"O=C(NS(=O)(=O)c1ccc(N2CCN(c3ccccn3)CC2)nc1)c1ccc(F)cc1Cl [Example 1-5, 6-(4-Pyridin-2-yl-piperazin-1-yl)-pyridine-3-sulfonic acid 2-chloro-4-fluoro-benzoylamide; ammonium salt]"
3,1 to 10,"COc1cc(Cl)ccc1C(=O)NS(=O)(=O)c1ccc(N2CCC3(CC2)OCCCO3)nc1 [Example 1-12, 6-(1,5-Dioxa-9-aza-spiro[5.5]undec-9-yl)-pyridine-3-sulfonic acid 4-chloro-2-methoxy-benzoylamide]"
4,1 to 10,"O=C(NS(=O)(=O)c1ccc(N2CCN(c3ccccc3)CC2)nc1)c1ccc(Cl)cc1Cl [Example 1-15, 6-(4-Phenyl-piperazin-1-yl)-pyridine-3-sulfonic acid 2,4-dichloro-benzoylamide; sodium salt]"
5,1 to 10,"O=C(NS(=O)(=O)c1ccc(N2CCN(c3ccc(F)cc3)CC2)nc1)c1ccc(F)cc1Cl [Example 1-17, 6-[4-(4-Fluoro-phenyl)-piperazin-1-yl]-pyridine-3-sulfonic acid 2-chloro-4-fluoro-benzoylamide; sodium salt]"
6,1 to 10,"O=C(NS(=O)(=O)c1ccc(N2CCN(c3ccccc3)CC2)nc1)c1ccc(F)cc1C(F)(F)F [Example 1-18, 6-(4-Phenyl-piperazin-1-yl)-pyridine-3-sulfonic acid 4-fluoro-2-trifluoromethyl-benzoylamide; sodium salt]"
7,1 to 10,"O=C(NS(=O)(=O)c1ccc(N2CCN(c3ccccc3F)CC2)nc1)c1ccc(F)cc1C(F)(F)F [Example 1-19, 6-[4-(2-Fluoro-phenyl)-piperazin-1-yl]-pyridine-3-sulfonic acid 4-fluoro-2-trifluoromethyl-benzoylamide; sodium salt]"

# — patent US7939532B2, “Heterocyclyl pyridyl sulfonamide derivatives, their manufacture and use as pharmaceutical agents” (Hoffmann-La Roche Inc., priority 2006, dated 2011)
